3 compounds from paper PMC5859250, “Contribution of transformation products towards the total herbicide toxicity to tropical marine organisms” (Scientific Reports, 2018) can be followed below.

Data set [1] has as its system Dunaliella sp. Nature of the data set: Microalgal PAM fluorometry assay, inhibition of ∆F/Fm′ (24 h, 96-well plate). It counts as cell-based. To be noted: for LOEC, effect on ∆F/Fm′ / NOEC, effect on ∆F/Fm′: pure transformation product, ANOVA p < 0.05. The text has this:
(§1) Microalgae play a critical role in the marine food web and have been used in a number of sensitive assays for the assessment of toxicity of both herbicides and their transformation products[13],[16],[60]. High throughput 96 well plate designs allow for increased replication and a wide range of concentrations especially when paired with pulse amplitude modulation (PAM) fluorometry[50],[61]. PAM fluorometry measures chlorophyll fluorescence and can be used to calculate inhibitions of effective quantum yield ∆F/Fm′, which is proportional to reduced photosynthetic efficiency[62] and growth in microalgae[63] and can be plotted against toxicant concentrations to derive concentrations that inhibit ∆F/Fm′ by 10, 20 and 50% (IC10, IC20 and IC50). In the present study the green algae (Dunaliella sp.) and coral symbiont (Symbiodinium sp.) were exposed to herbicides and aged herbicide solutions for 24 h in a 96-well plate format. A Maxi-Imaging-PAM (I-PAM) (Walz, GmbH Germany) was used to measure inhibition of ∆F/Fm′ using settings provided previously[36] and below.
(§2) Symbiodinium cells were isolated from coral by air blasting branches of Acropora tenuis colonies collected (collected under the permit G10-33440.1) at 2–5 m depth in Nelly Bay, Magnetic Island, GBR[36]. Symbiodinium cells were inoculated into sterile IMK growing media, the culture purified, DNA extracted, and Clade C1 identified as published previously[64],[65]. Cultures were maintained at 26 °C, 60 µE PAR, 14:10 light:dark photoperiod inside environmental chambers (Steridium e500). The Dunaliella sp. (CS-353) (Chlorophyceae) was obtained from the CSIRO Collection of Living Microalgae (CCLM). The algae was subcultured and grown in F2 media. For the toxicology assays, an exponentially growing culture was employed[63] and density adjusted by hemocytometry under 10× magnification. Day 7 sub-cultures were used throughout the experiment.
(§3) Herbicide solutions were delivered into each treatment plate using a Perkin Elmer Janus liquid handling system. Each well of the black 96-well plates (Perkin Elmer) received 100 µl herbicide solution as well as 100 µl of algal suspension (added via multi-channel pipette) and the solution was gently mixed. […] Each plate included a 3 µg l^−1 positive diuron control (n = 4) to confirm consistent sensitivities among the replicate algal subcultures. Treatments positions were randomised across the plates in duplicate[50],[61],[66]. Symbiodinium culture plates were incubated over a 12:12 h light:dark cycle at 26 °C and 60–70 µmol photons m^−2 s^−1 and Dunaliella sp. Plates incubated at: 26 °C and 130 µmol photons m^−2 s^−1. Microalgae were exposed for 24 h prior to PAM measurements. Samples were subjected to the 50 µmol photons m^−2 s^−1 actinic light for 1 min prior to measurement in the Maxi-IPAM (Actinic light = 1, ML = 10, ML frequency = 8, gain = 2 and damping = 1).
(§4) The model was constrained by applying a lower limit of 0% inhibition and all curves were tested for normality of the residuals and a replicate test was applied to assess the goodness of fit[36]. The probability that ICX values generated by the logistic curves were statistically different between parent and aged herbicide solutions was tested by applying the F test in Graph Pad Prism v6. ICXs were considered different when p < 0.05. Where inhibition data could not be fitted to logistic curves, one-way analysis of variance (ANOVA) was performed to identify treatments which caused significant (p < 0.05) inhibition comparison with control treatments (NCSS v9, Utah, USA). The larval prawn experimental data was arcsine square root transformed prior to statistical analysis.

Data set [2] concerns Symbiodinium sp. The description is as above. It counts as cell-based. Particulars: for LOEC, effect on ∆F/Fm′ / NOEC, effect on ∆F/Fm′: pure transformation product, ANOVA p < 0.05.
From the text: as §1, §2, §3, §4

The subject of data set [3] is prawn (Penaeus monodon) larvae. Put plainly: Prawn larvae assay, metamorphosis of nauplii into protozoea (24 h static). It is filed as in vivo. The procedure:
The giant tiger prawn (Penaeus monodon) can be found throughout the tropical Indo-Pacific region and can be obtained from aquaculture facilities and has a well-described life cycle. The aim of the larval prawn assay was to determine whether the herbicides and transformation products inhibit early naupliar development. Prawn eggs hatch into their first larval stage (nauplii), typically 12–15 h after spawning. During development the nauplii are lecithotrophic, and over the course of the next 36 h, nauplii pass through 6 sub-stages before metamorphosing into protozoae[67],[68].
Freshly hatched nauplii were harvested by light attraction over 30 min, and washed and aerated for 10 min with seawater, and transported to AIMS in Townsville, Queensland. […] The toxicity assays were performed in incubator shakers (set to 30 °C) under very low light and with gentle shaking to prevent individuals adhering to the side of experimental containers.
The larval stock was gently concentrated via reverse-gravity filtration to a higher density before dispensing 8–10 individuals per 20 ml glass scintillation vials. Additional positive control treatments in the form of 4 concentrations of copper II chloride solution (2 to 900 µg l^−1 Cu), were included for test validation. The static assay was terminated after 24 h and 10% seawater formalin was added as a preservative for later microscopy. Metamorphosis was considered successful when nauplii had developed into protozoea.
as §4

The mark [4] stands for this setting: 24 h, read-out: IC20 parent (inhibition of ∆F/Fm′ by 20%).
Setting [5] is: Penaeus monodon (giant tiger prawn), in vivo, 24 h.
[6] abbreviates: 24 h, vs solvent control, ANOVA p < 0.05, aged solutions as concentration of parent herbicide.

Converted amounts (≈) assume the structure as drawn. “Also recorded” adds a separate entry of the source.

As for `CC(C)Nc1nc(N)nc(Cl)n1` [DEA, desethylatrazine], the IC20 in data set [1] (setting [4]) amounted to 0.31 µg/mL (≈ 1.65 µM); in data set [2] (setting [4]), 0.218 µg/mL (≈ 1.16 µM). In addition, the “IC10 parent (inhibition of ∆F/Fm′ by 10%)” value is reported as 157 (142–173) µg l^−1 in data set [1] (Dunaliella sp., 24 h, pure compound) and 103 (93–115) µg l^−1 in data set [2] (Symbiodinium sp., 24 h, pure compound). For the same compound, the “Inhibition of ∆F/Fm′” value was 9–35% in data set [1] (Dunaliella sp., evident at 56 µg l^−1) and 9–35% in data set [2] (Symbiodinium sp., evident at 84 µg l^−1). For the same compound, the figures for the “LOEC, effect on ∆F/Fm′” value in data set [1] (Dunaliella sp.) and in data set [2] (Symbiodinium sp.) were 55.63 µg/L and 83.68 µg/L, respectively. Moreover, the results for the “NOEC, effect on ∆F/Fm′” value in data set [1] (Dunaliella sp.) and in data set [2] (Symbiodinium sp.) were 33.30 µg/L and 55.63 µg/L, respectively. Also, in data set [3] (setting [5]), the “LOEC, prawn larval metamorphosis” value was 3.8 µg/L. Further, the “Effect on prawn larval metamorphosis (in words)” value in data set [3] (in vivo) is “significantly inhibiting metamorphosis at all concentrations tested”.
Consider `CCNc1nc(N)nc(Cl)n1` [DIA, desisopropylatrazine], for which the “Inhibition of ∆F/Fm′” value is below 8% in data set [1] (Dunaliella sp., 458 µg l^−1, significant (ANOVA, p < 0.05)) and below 8% in data set [2] (Symbiodinium sp., 458 µg l^−1). Moreover, the “LOEC, effect on ∆F/Fm′” value in data set [1] (Dunaliella sp.) was 458.31 µg/L; in data set [2] (Symbiodinium sp.), above 458.31 µg/L. For the same compound, the “NOEC, effect on ∆F/Fm′” value came to 148.97 µg/L in data set [1] (Dunaliella sp.) and 458.31 µg/L in data set [2] (Symbiodinium sp.). The “LOEC, prawn larval metamorphosis” value in data set [3] (setting [5]) turned out to be 3.5 µg/L. Also, the “Effect on prawn larval metamorphosis (in words)” value in data set [3] (in vivo) is “significantly inhibiting metamorphosis at all concentrations tested”.
As for `Nc1ccc(Cl)c(Cl)c1` [3,4-DCA, 3,4-dichloroaniline], the “Inhibition of ∆F/Fm′ (in words)” value was “no significant inhibition; also recorded: did not inhibit ∆F/Fm′” in data set [1] (Dunaliella sp., concentrations up to 273 µg l^−1) and “no significant inhibition; also recorded: did not inhibit ∆F/Fm′” in data set [2] (Symbiodinium sp., concentrations up to 273 µg l^−1). Besides, the “LOEC, effect on ∆F/Fm′” value in data set [1] (Dunaliella sp.) and in data set [2] (Symbiodinium sp.) was above 273.41 µg/L throughout. The “NOEC, effect on ∆F/Fm′” value in data set [1] (Dunaliella sp.) and in data set [2] (Symbiodinium sp.) was 273.41 µg/L in each case. In addition, in data set [3] (setting [6]), the “LOEC, prawn larval metamorphosis” value stood at 188 µg/L. Further, the “NOEC, prawn larval metamorphosis” value in data set [3] (setting [6]) came out at 54 µg/L.
